Assay results: patent publication US11045449B2, “3-(5-fluoroindolyl)-4-arylmaleimide compounds and their use in tumor treatment” (JOHANNES GUTENBERG-UNIVERSITÄT MAINZ, priority 2015, dated 2021)
Where a name gives a salt, the structure may show the parent alone.

Legend:
[1] = metabolic conversion in rat liver microsomes; format: in vitro ADME; conditions: 40 μM compound, 37° C., pH 7.4, RP-HPLC-MS/MS
Description: In a further experiment the metabolic conversion of compounds (Ia) and (IIa) was evaluated according to the following procedure:
The test compounds were incubated in the reaction mixture given below with rat liver microsomes (Corning). For this purpose the reaction mixture (components 1-5, see below) was preincubated for 10 minutes at 37° C. The reaction was started with the addition of 10 μl of the test compound followed by incubation at 37° C. for 0-300 minutes, respectively. At each time point, 50 μl of the mixture were removed, added to 250 μl of ice cold acetonitrile and vortexed immediately. After centrifugation, the acetonitrile solution was analyzed by RP-HPLC-MS/MS system.
1. Magnesiumchloride hexahydrate 50 μl
2. Glucose-6-phosphate 50 μl
4. Glucose-6-phosphate-dehydrogenase: 10 μl
6. Compounds: 40 μM (10 μl of 4 mM solution in ethanol)
Total volume: 1000 μl in 0.1 M Trizma-buffer (pH 7.4 at 37° C.)
Acquity UPLC®-Quattro Premier XE (MS) system by Waters
Column: BEH C18, 2.1×50 mm, 1.2 μm pore diameter, Waters
Solvent A: H2O, NH4-formiate 2 mM+0.1% formic acid
Solvent B: Methanol, NH4-formiate 2 mM+0.1% formic acid
Flow regime: from 70% solvent A/30% solvent B to 100% Solvent A in 2.4 minutes, then 70% solvent A/30% solvent B for 0.8 minutes.

GSK-3β = GSK-3β (Homo sapiens, UniProt P49841); experiment: KinaseProfiler protein kinase inhibition, GSK-3β; format: biochemical
Description: (§1) The effect of test compounds on the activity of the protein kinases GSK-3β, VEGFR-2 and FLT-3 was evaluated based on half maximal inhibitory concentration (IC50) values determined by Eurofins Pharma Discovery Services UK Limited, Gemini Crescent, Dundee Technology Park, Dundee, DD2 1SW (KinaseProfiler™). Detailed information can be found at: http://www.eurofins.com/pharma-services/pharma-discovery-services/services/in-vitro-pharmacology/kinases/biochemical.aspx. The assays are also described in Biochem. J. (2013) 451, 313-328.

VEGFR-2 = molecular target: T1, VEGFR-2 (Homo sapiens, UniProt P35968); experiment: KinaseProfiler protein kinase inhibition, VEGFR-2; format: biochemical
T1 construct: purchased Eurofins Pharma Discovery Services UK Limited (KinaseProfiler)
Description: Detailed information can be found at: http://www.eurofins.com/pharma-services/pharma-discovery-services/services/in-vitro-pharmacology/kinases/biochemical.aspx. The assays are also described in Biochem. J. (2013) 451, 313-328.

FLT-3 = molecular target: T2, FLT-3 (Homo sapiens, UniProt P36888); experiment: KinaseProfiler protein kinase inhibition, FLT-3; format: biochemical
T2 construct: purchased Eurofins Pharma Discovery Services UK Limited (KinaseProfiler)
T2 sequence (P36888 27-993): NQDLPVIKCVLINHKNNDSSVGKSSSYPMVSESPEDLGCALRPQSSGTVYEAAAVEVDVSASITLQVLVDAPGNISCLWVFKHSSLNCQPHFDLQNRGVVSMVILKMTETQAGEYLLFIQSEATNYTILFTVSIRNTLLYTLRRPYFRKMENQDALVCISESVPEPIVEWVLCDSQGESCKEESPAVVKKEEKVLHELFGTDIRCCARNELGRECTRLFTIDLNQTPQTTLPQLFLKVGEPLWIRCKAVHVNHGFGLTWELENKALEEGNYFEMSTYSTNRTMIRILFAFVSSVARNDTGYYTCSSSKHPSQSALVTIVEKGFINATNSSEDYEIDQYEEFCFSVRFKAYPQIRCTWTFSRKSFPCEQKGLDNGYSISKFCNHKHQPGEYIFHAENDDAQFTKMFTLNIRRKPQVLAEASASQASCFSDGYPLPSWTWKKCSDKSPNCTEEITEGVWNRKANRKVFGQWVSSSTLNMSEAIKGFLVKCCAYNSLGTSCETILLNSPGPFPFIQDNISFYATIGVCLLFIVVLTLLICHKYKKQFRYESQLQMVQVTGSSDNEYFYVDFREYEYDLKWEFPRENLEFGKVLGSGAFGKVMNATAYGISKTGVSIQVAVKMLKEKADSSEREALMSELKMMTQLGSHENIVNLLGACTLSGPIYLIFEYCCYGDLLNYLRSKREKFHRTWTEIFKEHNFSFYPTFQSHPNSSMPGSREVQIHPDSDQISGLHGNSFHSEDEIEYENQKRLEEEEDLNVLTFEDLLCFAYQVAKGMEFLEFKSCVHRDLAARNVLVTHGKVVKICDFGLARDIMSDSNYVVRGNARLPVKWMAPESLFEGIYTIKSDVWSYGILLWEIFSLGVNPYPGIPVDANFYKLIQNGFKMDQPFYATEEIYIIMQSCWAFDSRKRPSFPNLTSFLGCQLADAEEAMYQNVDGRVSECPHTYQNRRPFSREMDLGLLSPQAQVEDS
Description: as §1

[2] = system: HT-29 human colon adenocarcinoma cells; experiment: MTT assay, antiproliferative activity; format: cell-based; conditions: HT-29 cells, 3 days exposure, FIG. 3
Description: Each experiment was done in triplicate.

T1 sequence (P35968 20-1356): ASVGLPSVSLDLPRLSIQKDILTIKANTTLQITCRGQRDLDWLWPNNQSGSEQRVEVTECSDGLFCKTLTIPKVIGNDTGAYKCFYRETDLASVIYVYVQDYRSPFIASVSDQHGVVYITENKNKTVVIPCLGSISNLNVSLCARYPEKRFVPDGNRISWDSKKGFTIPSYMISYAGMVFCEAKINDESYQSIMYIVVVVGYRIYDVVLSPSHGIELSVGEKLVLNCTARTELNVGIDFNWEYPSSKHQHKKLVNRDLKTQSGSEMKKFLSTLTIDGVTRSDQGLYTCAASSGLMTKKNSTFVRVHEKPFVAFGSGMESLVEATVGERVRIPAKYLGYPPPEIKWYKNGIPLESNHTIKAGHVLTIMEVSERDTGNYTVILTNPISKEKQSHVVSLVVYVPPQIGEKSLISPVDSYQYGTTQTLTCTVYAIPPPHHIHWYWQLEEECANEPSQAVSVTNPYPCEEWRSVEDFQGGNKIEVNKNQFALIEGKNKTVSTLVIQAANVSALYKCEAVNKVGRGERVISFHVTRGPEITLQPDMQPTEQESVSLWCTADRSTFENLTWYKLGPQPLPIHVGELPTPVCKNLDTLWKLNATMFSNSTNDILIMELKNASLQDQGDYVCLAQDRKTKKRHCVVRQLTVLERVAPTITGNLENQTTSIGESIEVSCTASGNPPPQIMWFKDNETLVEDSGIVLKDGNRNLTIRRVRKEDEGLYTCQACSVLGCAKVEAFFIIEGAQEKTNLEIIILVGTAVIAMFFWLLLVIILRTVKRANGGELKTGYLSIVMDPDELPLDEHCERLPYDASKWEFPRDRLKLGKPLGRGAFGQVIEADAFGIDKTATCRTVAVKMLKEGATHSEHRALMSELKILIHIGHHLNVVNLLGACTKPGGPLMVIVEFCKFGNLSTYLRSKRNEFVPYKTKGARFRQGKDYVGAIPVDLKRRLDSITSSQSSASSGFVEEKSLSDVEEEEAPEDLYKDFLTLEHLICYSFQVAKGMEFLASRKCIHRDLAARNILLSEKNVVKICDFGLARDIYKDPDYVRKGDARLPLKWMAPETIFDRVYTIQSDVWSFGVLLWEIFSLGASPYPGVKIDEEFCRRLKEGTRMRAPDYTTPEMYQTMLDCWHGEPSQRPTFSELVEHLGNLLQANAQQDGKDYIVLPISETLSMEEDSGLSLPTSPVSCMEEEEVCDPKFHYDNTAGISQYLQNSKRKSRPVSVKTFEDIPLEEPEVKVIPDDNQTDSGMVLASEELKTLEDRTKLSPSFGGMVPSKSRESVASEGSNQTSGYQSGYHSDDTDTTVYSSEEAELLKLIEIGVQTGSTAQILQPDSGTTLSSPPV
Chain of GSK-3β (P49841 whole entry): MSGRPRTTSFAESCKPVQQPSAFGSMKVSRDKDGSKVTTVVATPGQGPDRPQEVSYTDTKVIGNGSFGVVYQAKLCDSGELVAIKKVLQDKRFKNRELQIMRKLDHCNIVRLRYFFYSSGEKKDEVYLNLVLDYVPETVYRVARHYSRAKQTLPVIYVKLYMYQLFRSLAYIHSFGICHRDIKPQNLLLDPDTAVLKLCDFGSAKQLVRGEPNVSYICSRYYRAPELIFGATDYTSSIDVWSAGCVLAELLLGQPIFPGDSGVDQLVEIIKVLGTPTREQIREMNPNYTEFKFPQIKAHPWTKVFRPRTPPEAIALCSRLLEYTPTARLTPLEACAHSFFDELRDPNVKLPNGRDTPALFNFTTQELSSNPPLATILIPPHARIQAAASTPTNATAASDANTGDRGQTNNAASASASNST

For COc1cc(C2=C(c3cn(CCOC(=O)C(N)CC(C)C)c4ccc(F)cc34)C(=O)NC2=O)cc(OC)c1OC (stereo not shown) (as salt: salt) [Ia, 2-(3-(2,5-Dioxo-4-(3,4,5-trimethoxyphenyl)-2,5-dihydro-1H-pyrrol-3-yl)-5-fluoro-1H-indol-1-yl)-ethyl-2-amino-4-methylpentanoate], the melting point was 180 °C.

With COc1cc(C2=C(c3cn(CCOC(=O)C(N)CC(C)C)c4ccccc34)C(=O)NC2=O)cc(OC)c1OC (stereo not shown) [IIa, reference compound] the “time until largely metabolized” value [1] was 2 h.

COc1cc(C2=C(c3cn(CCCO)c4ccccc34)C(=O)NC2=O)cc(OC)c1OC [IIe] gave an IC50 (GSK-3β) of 2 nM.

In the case of COc1cc(C2=C(c3cn(CCOC(=O)C(N)CC(C)C)c4ccc(F)cc34)C(=O)NC2=O)cc(OC)c1OC (stereo not shown) [Ia, 2-(3-(2,5-Dioxo-4-(3,4,5-trimethoxyphenyl)-2,5-dihydro-1H-pyrrol-3-yl)-5-fluoro-1H-indol-1-yl)-ethyl-2-amino-4-methylpentanoate], the “time until largely metabolized” value [1] is reported as 1 h.

Molecule COc1cc(C2=C(c3cn(CCO)c4ccc(F)cc34)C(=O)NC2=O)cc(OC)c1OC [Ib, 3-(5-fluoro-1-(2-hydroxyethyl)-1H-indol-3-yl)-4-(3,4,5-trimethoxyphenyl)-maleimide] has an IC50 (VEGFR-2) of 79 nM and an IC50 (FLT-3) of 66 nM.

COc1cc(C2=C(c3cn(CCO)c4ccc(F)cc34)C(=O)NC2=O)cc(OC)c1O [Ic, 3-(5-fluoro-1-(2-hydroxyethyl)-1H-indol-3-yl)-4-(4-hydroxy-3,5-dimethoxyphenyl)-maleimide] gave a melting point of 233 °C.

In the case of COc1cc(C2=C(c3c[nH]c4ccc(F)cc34)C(=O)NC2=O)cc(OC)c1O [Id, 3-(5-fluoro-1H-indol-3-yl)-4-(4-hydroxy-3,5-dimethoxyphenyl)-maleimide], the “antiproliferative activity (viability)” value [2] is reported as “higher activity as compared to (IId)”.

For COc1cc(C2=C(c3cn(CCCO)c4ccc(F)cc34)C(=O)NC2=O)cc(OC)c1OC [If, 3-(5-fluoro-1-(3-hydroxypropyl)-1H-indol-3-yl)-4-(3,4,5-trimethoxyphenyl)-maleimide], the IC50 (VEGFR-2) was 168 nM and the IC50 (FLT-3) was 84 nM.
